Test results taken from US20240294478A1, “ANTI-CANCER COMPOUNDS AND METHODS OF USE” (YALE UNIVERSITY, priority 2021, published 2024).
Read-outs that look alike come from different tables or passages of the source.

Assays:
LN229 MGMT+/MMR− cells = test: Short-term cell viability assay, LN229 MGMT+/MMR- (shRNA targeting MSH2); assay type: cell-based; details: Homo sapiens
Method: (§1) LN229 MGMT- and MGMT+ cell lines were a gift from B. Kaina (Johannes Gutenberg University Mainz, Mainz, Germany) and grown in Gibco® Duilbecco's Modified Eagle Medium with 10% fetal bovine serum (DMEM). For each compound tested, the relationship between MGMT status and MMR status and compound activity, in terms of IC50 values ([…]), was determined by the following method. On day 1, LN229 isogenic cells of varying MGMT and MMR status were seeded in 96 well format at a density of 2000 cells/well in 100 μL of DMEM media and allowed to adhere overnight. On day 2, a drug master plate was made with 100×the desired maximal concentration of test compound and serially diluted by 2 until 100×the minimal desired concentration, with one DMSO control. Then daughter plates were created with varied concentrations from 3-times the minimal concentration to 3-times the maximal desired concentration. Afterwards, 50 μL of daughter drug plate was added to 100 μL of the seeded cells for a final concentration of 1×in triplicate. Cells were allowed to grow for 6 days. On day 7, the cells were fixed, and stained with Hoechst nuclear dye and imaged to determine growth inhibition.
(§2) For each compound tested, the relationship between MGMT status and MMR status and compound activity, in terms of IC50 values (in μM), was determined. In addition, for each compound, the therapeutic index (TI) was calculated, according to the equation MGMT TI=IC50 (MGMT+/MMR+) divided by IC50 (MGMT−/MMR+). The T1 indicates the efficacy of a compound in treating the targeted MGMT-cancer cells as compared to potential for the same compound to damage, or have adverse effects against, normal cells which are MGMT+cells, The higher the value of the TI, the safer the compound is. […] MMR RI (resistance index)=IC50 (MGMT−/MMR−) divided by IC50 (MGMT−/MMR+). The higher the value of the RI, the less likely that resistance to the compound will develop.
(§3) Short-term Cell Viability Assay. Cells were seeded in 96-well plates at 1000 or 2000 cells/well and allowed to adhere at 23° C. for 60 min and then incubated overnight at 37° C. Cells were treated with indicated concentrations of compounds in triplicate for 4-6 days prior to fixation with 3.7% paraformaldehyde and nuclear staining with 1 μg/mL Hoechst 33342 dye. Cells were imaged on a Cytation 3 imaging reader (BioTek) and quantified using CellProfiler software. For in vitro short-term growth delay experiments, IC50 values were determined from the nonlinear regression equation, [inhibitor] vs normalized response with variable slope.

LN229 MGMT−/MMR+ cells = test: Short-term cell viability assay, LN229 MGMT-/MMR+; assay type: cell-based, human; details: for IC50: Homo sapiens, read-out: IC50 against LN229 cell lines, MGMT− MMR+; for MGMT− TI: Table III
Method: as §1, §2, §3

LN229 MGMT+ shMSH6 cells = test: Short-term viability assay, LN229 MGMT+ shMSH6; assay type: cell-based; details: Homo sapiens, LN-229, Table III, read-out: IC50 against LN229 cell lines, MGMT MMR−
Method: The activity of KL-50 in MGMT-LN229 cells engineered to lack expression of other key MMR proteins including MSH6, MLH1, PMS2, and MSH3 was also confirmed. Western blotting was performed in LN229 MGMT+/−cells with stable expression of shRNA targeting MSH6, MLH1, PMS2, or MSH3 to confirm depletion of the shRNA targets. In shMSH6 cells, there was reduced expression of MSH2, and in shMLH1 cells, there was loss of PMS2, due to destabilization in the setting of loss of their heterodimeric partners. GAPDH serves as loading control. […] Short-term viability assay curves for KL-50 in LN229 MGMT+/−, MMR+/shMSH6 cells. […] Short-term viability assay curves for KL-50 in LN229 MGMT+/−, MMR+/shMLH1 cells. […] Short-term viability assay curves for KL-50 in LN229 MGMT+/−, MMR+/shPMS2 cells. […] Short-term viability assay curves for KL-50 in LN229 MGMT+/−, MMR+/shMSH3 cells.
MMR Protein shRNA Knockdown. pGIPZ lentiviral shRNA vectors targeting MSH2, MSH6, MLH1, PMS2, and MSH3 were purchased from Horizon Discovery (Table IV). […]
Short-term Cell Viability Assay. […] Cells were imaged on a Cytation 3 imaging reader (BioTek) and quantified using CellProfiler software. For in vitro short-term growth delay experiments, IC50 values were determined from the nonlinear regression equation, [inhibitor] vs normalized response with variable slope.

[1] = test system: LN229 MGMT+/−, MMR+/− cells; test: Cell cycle analysis; assay type: cell-based, human; details: 20 μM
Method: FIGS. 6A-6E: Selected cell cycle analysis upon drug treatment. FIG. 6A: Percentage of cells in G1, S, and G2 cell cycle phases after treatment, as in FIGS. 5A-5C, measured using integrated nuclear (Hoechst) staining intensity. Columns, mean; error bars, SD; n=3 independent analyses.
Cell Cycle Analysis. Cell cycle analysis was performed using integrated Hoechst nucleic acid dye fluorescence intensity. Briefly, integrated Hoechst fluorescence intensity was log 2 transformed and histograms from DMSO-treated cells were used to identify the centers of the 2N and 4N DNA peaks. These values were used to normalize the 2N DNA peak to 1 and the 4N DNA peak to 2. Cells were then classified by normalized log 2 DNA content as G1 (0.75-1.25), S (1.25-1.75), or G2 (1.75-2.5) phase cells. The percentage of cells within each phase of the cell cycle was determined for each treatment condition. The three sets of Hoechst-stained cells corresponding to the three separate DNA foci stains were treated as three independent analyses.

[2] = LN-229, Table II, read-out: IC50 against LN229 cell lines, MGMT MMR−

| SMILES | IC50 (LN229 MGMT+/MMR− cells; [2]) [µM] | IC50 (LN229 MGMT−/MMR+ cells; LN-229, Table III, shRNA None) [µM] | IC50 (LN229 MGMT−/MMR+ cells; LN-229, Table II) [µM] | TI / RI, in words (LN229 MGMT−/MMR+ cells; LN229 isogenic lines) | MGMT− TI (therapeutic index) (LN229 MGMT−/MMR+ cells; Table II, IC50 (MGMT+/MMR+) divided by IC50 (MGMT−/MMR+)) | MGMT− TI (LN229 MGMT−/MMR+ cells; shRNA None) | IC50 (LN229 MGMT+ shMSH6 cells) [µM] | G2 arrest in MGMT+/MMR+ cells [1] | G2 arrest in MGMT−/MMR− cells [1] | G2 arrest in MGMT−/MMR+ cells ([1]; 24 to 48 h) | IC50 (LN229 MGMT+/MMR− cells; LN-229, 144 h, Table 1, 6 days growth, read-out: IC50 against LN229 cell lines, MGMT+ MMR−) [µM] | IC50 (LN229 MGMT−/MMR+ cells; LN-229, 144 h, Table 1, 6 days growth) [µM] |
| --- | --- | --- | --- | --- | --- | --- | --- | --- | --- | --- | --- | --- |
| NC(=O)c1ncn2c(=O)n(CCF)nnc12 [KL-50] | 504 ± 55 | 13.2 ± 0.8 | 24.7 ± 4.1 | superior TI and RI | 24 | 22 | 362 ± 41 | moderate G2 arrest | attenuated G2 arrest | increasing G2 arrest |  |  |
| Cn1nnc2c(C(N)=O)ncn2c1=O [TMZ, 4-methyl-5-oxo-2,3,4,6,8-pentazabicyclo[4.3.0]nona-2,7,9-triene-9-carboxamide, reference compound] | 1000 ± 107 | 5.1 ± 0.8 | 8.3 ± 3.5 |  |  | 137 | 929 ± 201 | moderate G2 arrest | absent |  | > 100 | 8.3 ± 3.5 |
